This is an account of results in article PMC9604064, “Comparative Assessment of the Inhibitory Potential of the Herbicide Glyphosate and Its Structural Analogs on RGD-Specific Integrins Using Enzyme-Linked Immunosorbent Assays” (International Journal of Molecular Sciences, 2022).

Series [1] concerns the target T1, integrin αVβ3 (Homo sapiens, UniProt P05106+P06756).
T1 construct: purchased R&D Systems Inc. (Minneapolis, MN, USA)
Type of series: binding. The conditions noted are these: immobilized SARS-CoV-2 S-protein; maximal inhibition, range up to 22 mM.

The target in series [2] is T1, integrin αVβ3. The series is described as follows: biochemical. Type of series: binding. The conditions noted are these: for inhibition: at 22 mM (highest concentration), read-out: Maximal Inhibition Achieved (converted).
Series [3] has as its target T1, integrin αVβ3. The conditions noted are these: at 11 mM; previously developed assay; cited from earlier work.
For series [4], the system named is MC3T3-E1 cells. The settings on record: biosensoric measurement, concentration-dependent, via blocking RGD-specific integrins; cited from earlier work.
For series [5] the following is noted: cited from earlier work.
The target of series [6] is T2, integrin α5β1 (Homo sapiens, UniProt P05556+P08648).
T2 construct: purchased R&D Systems Inc. (Minneapolis, MN, USA)
T2 sequence (P08648 42-995 limits assumed): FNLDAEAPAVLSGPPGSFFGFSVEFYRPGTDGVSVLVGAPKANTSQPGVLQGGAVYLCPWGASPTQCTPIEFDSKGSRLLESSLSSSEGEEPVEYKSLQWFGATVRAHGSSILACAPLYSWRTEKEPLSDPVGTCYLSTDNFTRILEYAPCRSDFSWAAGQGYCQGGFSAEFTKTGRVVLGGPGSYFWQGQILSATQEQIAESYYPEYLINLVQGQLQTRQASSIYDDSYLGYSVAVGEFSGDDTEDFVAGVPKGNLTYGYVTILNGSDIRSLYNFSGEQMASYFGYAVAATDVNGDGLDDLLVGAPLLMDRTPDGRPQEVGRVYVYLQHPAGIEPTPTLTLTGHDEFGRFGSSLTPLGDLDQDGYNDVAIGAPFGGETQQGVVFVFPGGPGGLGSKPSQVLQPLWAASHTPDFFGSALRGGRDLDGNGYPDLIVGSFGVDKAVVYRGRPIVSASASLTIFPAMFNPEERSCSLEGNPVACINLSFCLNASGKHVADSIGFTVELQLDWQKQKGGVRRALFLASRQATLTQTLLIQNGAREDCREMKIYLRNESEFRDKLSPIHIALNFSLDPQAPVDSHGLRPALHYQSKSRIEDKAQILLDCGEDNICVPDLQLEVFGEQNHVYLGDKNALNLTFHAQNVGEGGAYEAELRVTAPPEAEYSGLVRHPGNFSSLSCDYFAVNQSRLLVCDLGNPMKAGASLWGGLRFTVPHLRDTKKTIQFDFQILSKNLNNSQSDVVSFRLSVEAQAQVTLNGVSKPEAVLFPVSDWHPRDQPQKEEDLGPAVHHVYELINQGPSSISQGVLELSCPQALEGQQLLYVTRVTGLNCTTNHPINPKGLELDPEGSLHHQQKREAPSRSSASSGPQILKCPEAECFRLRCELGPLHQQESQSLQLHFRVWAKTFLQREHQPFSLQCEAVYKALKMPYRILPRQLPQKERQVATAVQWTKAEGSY
T2 sequence (P05556 21-728 limits assumed): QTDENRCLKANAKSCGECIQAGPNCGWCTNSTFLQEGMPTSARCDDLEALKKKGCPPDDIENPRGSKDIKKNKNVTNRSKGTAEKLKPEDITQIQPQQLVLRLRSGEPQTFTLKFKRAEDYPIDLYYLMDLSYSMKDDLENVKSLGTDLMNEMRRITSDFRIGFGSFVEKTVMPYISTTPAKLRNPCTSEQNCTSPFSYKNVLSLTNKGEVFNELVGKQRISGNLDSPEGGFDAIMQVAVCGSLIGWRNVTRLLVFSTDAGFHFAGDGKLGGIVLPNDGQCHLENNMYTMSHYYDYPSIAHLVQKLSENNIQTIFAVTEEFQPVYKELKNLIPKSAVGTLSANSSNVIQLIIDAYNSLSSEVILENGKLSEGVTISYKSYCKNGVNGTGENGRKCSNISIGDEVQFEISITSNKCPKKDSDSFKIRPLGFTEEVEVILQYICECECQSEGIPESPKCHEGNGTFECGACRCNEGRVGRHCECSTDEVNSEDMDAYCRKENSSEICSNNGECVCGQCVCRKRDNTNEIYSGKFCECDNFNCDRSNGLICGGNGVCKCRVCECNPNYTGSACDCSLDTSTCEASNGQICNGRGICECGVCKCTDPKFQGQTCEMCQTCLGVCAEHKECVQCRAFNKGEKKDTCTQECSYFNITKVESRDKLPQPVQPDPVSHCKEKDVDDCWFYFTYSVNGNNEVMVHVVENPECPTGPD
Put plainly: biochemical. It is filed as binding. The conditions noted are these: for inhibition: at 22 mM (highest concentration), read-out: Maximal Inhibition Achieved (converted).

The target in series [7] is T3, integrin αllbβ3 (Homo sapiens, UniProt P05106+P08514).
T3 construct: purchased Enzyme Research Laboratories Ltd. (Swansea, UK)
T3 sequence (P08514 32-887 limits assumed): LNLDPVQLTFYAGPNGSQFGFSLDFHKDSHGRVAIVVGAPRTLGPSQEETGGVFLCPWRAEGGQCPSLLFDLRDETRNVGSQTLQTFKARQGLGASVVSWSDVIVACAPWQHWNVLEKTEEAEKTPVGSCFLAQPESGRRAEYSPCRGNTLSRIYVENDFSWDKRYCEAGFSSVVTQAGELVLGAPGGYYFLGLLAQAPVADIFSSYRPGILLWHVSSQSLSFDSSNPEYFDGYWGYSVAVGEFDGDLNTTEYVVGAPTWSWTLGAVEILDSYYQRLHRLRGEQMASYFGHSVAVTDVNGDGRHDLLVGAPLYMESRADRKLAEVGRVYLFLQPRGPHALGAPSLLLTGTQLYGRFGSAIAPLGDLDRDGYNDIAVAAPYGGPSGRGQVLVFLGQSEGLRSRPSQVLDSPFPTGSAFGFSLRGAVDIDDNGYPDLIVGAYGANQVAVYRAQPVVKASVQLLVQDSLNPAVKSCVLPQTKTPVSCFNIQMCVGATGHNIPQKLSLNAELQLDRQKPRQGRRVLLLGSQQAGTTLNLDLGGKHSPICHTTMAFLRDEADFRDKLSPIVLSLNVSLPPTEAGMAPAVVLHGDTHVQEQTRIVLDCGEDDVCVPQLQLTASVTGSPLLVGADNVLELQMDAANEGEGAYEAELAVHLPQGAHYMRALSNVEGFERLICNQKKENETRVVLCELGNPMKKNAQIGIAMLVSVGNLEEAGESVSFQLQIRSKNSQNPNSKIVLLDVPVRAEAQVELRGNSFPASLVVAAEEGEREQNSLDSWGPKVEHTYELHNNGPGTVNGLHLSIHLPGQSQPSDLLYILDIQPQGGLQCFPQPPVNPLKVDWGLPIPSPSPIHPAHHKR
T3 sequence (P08514 891-1039 partner limits assumed): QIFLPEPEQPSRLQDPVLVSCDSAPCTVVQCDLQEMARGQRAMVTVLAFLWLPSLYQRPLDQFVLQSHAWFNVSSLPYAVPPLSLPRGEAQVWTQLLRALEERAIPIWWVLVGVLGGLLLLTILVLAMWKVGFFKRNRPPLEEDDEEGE
T3 sequence (P05106 27-788): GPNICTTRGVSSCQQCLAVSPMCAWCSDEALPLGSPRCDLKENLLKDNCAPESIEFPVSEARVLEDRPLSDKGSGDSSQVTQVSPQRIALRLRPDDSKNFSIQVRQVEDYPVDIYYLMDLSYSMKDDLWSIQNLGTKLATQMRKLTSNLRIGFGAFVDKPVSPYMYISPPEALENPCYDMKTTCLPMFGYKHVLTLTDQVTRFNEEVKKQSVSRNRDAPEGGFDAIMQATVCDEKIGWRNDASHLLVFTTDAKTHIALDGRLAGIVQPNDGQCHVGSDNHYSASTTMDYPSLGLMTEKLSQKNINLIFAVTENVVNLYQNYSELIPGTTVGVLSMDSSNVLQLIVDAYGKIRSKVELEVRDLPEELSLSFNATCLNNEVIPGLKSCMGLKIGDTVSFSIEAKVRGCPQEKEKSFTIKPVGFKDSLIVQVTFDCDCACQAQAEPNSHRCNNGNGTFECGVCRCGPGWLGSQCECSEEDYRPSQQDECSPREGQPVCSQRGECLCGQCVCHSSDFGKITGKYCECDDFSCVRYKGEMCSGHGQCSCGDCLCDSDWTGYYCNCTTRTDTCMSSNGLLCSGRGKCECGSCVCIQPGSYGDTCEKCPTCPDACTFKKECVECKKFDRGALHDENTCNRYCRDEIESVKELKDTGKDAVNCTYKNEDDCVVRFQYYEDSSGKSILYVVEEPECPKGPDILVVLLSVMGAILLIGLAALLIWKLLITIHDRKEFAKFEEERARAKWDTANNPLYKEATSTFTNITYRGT
The series is described as follows: biochemical. Type of series: binding.

Series [8] deals with T1, integrin αVβ3. The series is described as follows: biochemical. The settings on record: for inhibition: read-out: Maximal Inhibition Achieved (converted). It is filed as binding.
Details of series [9]: method as in earlier work. The settings on record: not marked *; octanol/water; cited from earlier work.
Where [10] appears, read: integrin αVβ3, immobilized vitronectin.
Setting [11] is: integrin αVβ3, immobilized vitronectin, ligand range 0.1-22 mM.
The mark [12] stands for this setting: integrin α5β1, immobilized RGD polymer.
Where [13] appears, read: integrin α5β1, immobilized RGD polymer, ligand range 0.1-22 mM.
Setting [14] is: integrin αllbβ3, immobilized fibrinogen, ligand range 0.1-22 mM.
Setting [15] is: integrin αVβ3, immobilized RGD polymer, at 22 mM (highest concentration).
Setting [16] is: integrin αVβ3, immobilized RGD polymer, ligand range 0.1-22 mM.
Setting [17] is: integrin αllbβ3, immobilized fibrinogen, at 22 mM, activation = higher absorbance than negative control, n. d. = not detected.

“Also recorded” adds a separate entry of the source. Read-outs that look alike come from different tables or passages of the source. A value given as a limit tells only on which side of the number the result lay.

What is called inhibition is the relative decrease from the control value, in per cent. In general, IC50 refers to the concentration that inhibits the measured activity by half. Read a low IC50 as higher potency. `O=C(O)CNCP(=O)(O)O` [Glyphosate, N-(phosphonomethyl)glycine]: the “Inhibition of binding of αVβ3 to S-protein” value in [1] is reported as 35.6 ± 4.4%. The inhibition in series [2] (setting [10]) is 44.8%; in [6] (setting [12]), 85.7%; in [7] (integrin αllbβ3, immobilized fibrinogen, at 22 mM, activation = higher absorbance than negative control, n. d. = not detected, read-out: Maximal Inhibition Achieved), 40.2%; in series [8] (setting [15]) it was 100%. The IC50 in series [2] (setting [11]) is more than 22 mM; in series [6] (setting [13]), 9.7 ± 3.2 mM; in [7] (setting [14]) it was more than 22 mM; in [8] (setting [16]), 2.7 ± 0.5 mM. For the same compound, the “Inhibition of RGD-binding capability of αVβ3 integrin” value in [3] was 96.3 ± 3.2%. In addition, the “Adhesion of MC3T3-E1 cells to RGD motif” value in series [4] was “significantly reduced”. In addition, the “Water Solubility” value in [5] (pH 7.0) is recorded as 157 g/L.

As for `O=C(O)CNCC(=O)O` [Iminodiacetic acid], the inhibition in series [2] (setting [10]) is 52.4%; in series [6] (setting [12]) it was 8%; in series [8] (setting [15]), 24.6%. The IC50 in [2] (setting [11]) was 11.5 ± 1.5 mM; in [6] (setting [13]) it was more than 22 mM; in series [7] (setting [14]) it was more than 22 mM; in series [8] (setting [16]), more than 22 mM. Also, the “Water Solubility” value in series [5] (5 °C) was 24.3 (5 °C) g/L.

As to `CC(=O)N(CC(=O)O)CP(=O)(O)O` [N-acetylglyphosate], the inhibition in series [2] (setting [10]) is 47.5%; in series [6] (setting [12]), 15%. For the same compound, the IC50 in series [2] (setting [11]), in series [6] (setting [13]), in series [7] (setting [14]) and in series [8] (setting [16]) was more than 22 mM throughout. The “Water Solubility” value in series [5] (temperature or pH not given) is listed as “slight”. In addition, in series [8] (integrin αVβ3, immobilized RGD polymer, at 22 mM (highest concentration), read-out: Maximal Inhibition Achieved), the inhibition at 22000 µM turned out to be 40.6%.

`CNCC(=O)O` [Sarcosine]: the values for the inhibition in series [2] (setting [10]), in series [6] (setting [12]) and in series [8] (setting [15]) were 37.9%, 13.4% and 35%, respectively. In addition, the IC50 in series [2] (setting [11]), in [6] (setting [13]), in series [7] (setting [14]) and in [8] (setting [16]) was more than 22 mM each time. In series [5] (20 °C), the “Water Solubility” value is 89.1 (20 °C) g/L. Further, in series [9], the “Clog Po/w” value is −3.2.

With Glyphosate isopropylammonium salt, the “Water Solubility” value in [5] (temperature or pH not given) is 1050 g/L. Moreover, in series [9], the “Clog Po/w” value is on record as −4.16.

In the case of `CC(=O)NCC(=O)O` [Acetylglycine], the inhibition in series [2] (setting [10]) was 58.5%; in series [6] (setting [12]), 98.9%; in [8] (setting [15]), 46.8%. The IC50 in series [2] (setting [11]) is 9.2 ± 1 mM; in series [6] (setting [13]), 5.8 ± 0.9 mM; in series [7] (setting [14]) it was more than 22 mM; in series [8] (setting [16]), more than 22 mM. In addition, the “Maximal Inhibition Achieved” value in series [7] (setting [17]) is “activation”; in series [7] (integrin αllbβ3, immobilized fibrinogen, at 22 mM, activation = higher absorbance than negative control, n. d. = not detected, listed as acetylglycine), “high activation”.

With `NCC(=O)O` [Glycine], the IC50 in series [2], in series [6], in series [7] and in [8] was more than 22 mM in each case. In series [6], the “Maximal Inhibition Achieved” value was >22 (22.1 ± 3.3%).

Take `NCP(=O)(O)O` [Aminomethylphosphonic acid (AMPA), aminomethylphosphonic acid]: the results for the inhibition in [2] (setting [10]), in series [6] (setting [12]) and in [8] (setting [15]) were 75.3%, 44.8% and 95.9%, respectively. For the same compound, the IC50 is 1.5 ± 0.4 mM in series [2] (setting [11]), more than 22 mM in series [6] (setting [13]), more than 22 mM in series [7] (setting [14]) and 1.3 ± 0.2 mM in series [8] (setting [16]). The “Water Solubility” value in series [5] (20 °C) is 56 (20 °C) g/L. For the same compound, the “Maximal Inhibition Achieved” value in [7] (setting [17]) was “activation”; in [7] (integrin αllbβ3, immobilized fibrinogen, at 22 mM, activation = higher absorbance than negative control, n. d. = not detected, listed as AMPA), “activation; also recorded: activated”.
